Data from patent publication US12168012B2, “NLRP3 inflammasome inhibitors” (Novartis AG, priority 2018, dated 2024).
pIC50: −log10 of the molar value.

System: NLRP3 inflammasome
Experiment: IL-1β secretion assay
Assay type: cell-based
Details: Homo sapiens, THP-1, 3 h, PMA-differentiated THP-1 cells, 15 μM nigericin, HTRF
Procedure: 10 μL supernatant was removed, and IL-1p levels were monitored using an HTRF assay (CisBio, #62IL1PEC) according to manufacturers' instructions. Viability and pyroptosis was monitored with the addition of PrestoBlue cell viability reagent (Life Technologies, #A13261) directly to the cell culture plate.
IC50 values were calculated from the plot of percentage of inhibition versus the inhibitor concentration by a logistics fit according to: y=A2+(A1−A2)/(1+(x/IC50)^p) where y is the %-inhibition at the inhibitor concentration, x. A1 is the lowest inhibition value, i.e. 0%, and A2 the maximum inhibition value, i.e. 100%. The exponent, p, is the Hill coefficient. The curve fitting was conducted with an internally developed software suite.
NLRP3-dependent IL-1β secretion was stimulated in PMA-differentiated THP-1 cells by the addition of nigericin, and cytokines were measured in the […] after 3 hours. As discussed above, activation of the NLRP3 inflammasome requires both an NF-kB-dependent priming step and the addition of a NLRP3 activator.

Going from CC(C)c1nn(CC(=O)NC2CC3(CC(O)C3)C2)c(=O)c2cc3sc(Cl)cc3n12 (stereo not drawn) [Ex 73, 2-(2-Chloro-5-isopropyl-8-oxothieno[2′,3′:4,5]pyrrolo[1,2-d][1,2,4]triazin-7(8H)-yl)-N-(6-hydroxyspiro[3.3]heptan-2-yl)acetamide] to CC(C)c1nn(CC(=O)N[C@H]2C[C@@H](O)C2)c(=O)c2cc3sc(Cl)cc3n12 [Ex 109, 2-(2-Chloro-5-isopropyl-8-oxothieno[2′,3′:4,5]pyrrolo[1,2-d][1,2,4]triazin-7(8H)-yl)-N-((1s,3s)-3-hydroxycyclobutyl)acetamide], the pIC50 falls from 7.84 to 6.66 (1.18 log units). The first is the more potent here.

Cc1nc2c(cc3c(=O)n(CC(=O)N[C@@H]4CCCN(C)C4)nc(C(C)C)n32)s1 [Ex 92, (R)-2-(5-Isopropyl-2-methyl-8-oxothiazolo[5′,4′:4,5]pyrrolo[1,2-d][1,2,4]triazin-7(8H)-yl)-N-(1-methylpiperidin-3-yl)acetamide] and Cc1nc2c(cc3c(=O)n(CC(=O)N[C@H]4CC[C@H](C(=O)O)CC4)nc(C(C)C)n32)s1 [Ex 118, (1r,4r)-4-(2-(5-Isopropyl-2-methyl-8-oxothiazolo[5′,4′:4,5]pyrrolo[1,2-d][1,2,4]triazin-7(8H)-yl)acetamido)cyclohexane-1-carboxylic acid] are within 0.2 log units of each other in pIC50: 7.19 for the first, 7.10 for the second.

First: CC(C)(O)c1nn(CC(=O)Nc2ccc3cc[nH]c3c2)c(=O)c2cc3sc(Cl)cc3n12 [Ex 67, 2-(2-Chloro-5-(2-hydroxypropan-2-yl)-8-oxothieno[2′,3′:4,5]pyrrolo[1,2-d][1,2,4]triazin-7(8H)-yl)-N-(1H-indol-6-yl)acetamide]
Second: CC(C)(O)c1nn(CC(=O)N[C@H]2CCNC2)c(=O)c2cc3sc(Cl)cc3n12 [Ex 107, (S)-2-(2-Chloro-5-(2-hydroxypropan-2-yl)-8-oxothieno[2′,3′:4,5]pyrrolo[1,2-d][1,2,4]triazin-7(8H)-yl)-N-(pyrrolidin-3-yl)acetamide]
The pIC50 of the first is 1.31 log units higher: 6.67 for the first, 5.36 for the second. The first is the more potent here.

Compared with CC(C)c1nn(CC(=O)N[C@@H]2CCN(C)C2)c(=O)c2cc3sc(Cl)cc3n12 [Ex 104, (R)-2-(2-Chloro-5-isopropyl-8-oxothieno[2′,3′:4,5]pyrrolo[1,2-d][1,2,4]triazin-7(8H)-yl)-N-(1-methylpyrrolidin-3-yl)acetamide], CC(C)c1nn(CC(=O)N[C@H]2CCN(C)C2)c(=O)c2cc3sc(Cl)cc3n12 [Ex 105, (S)-2-(2-Chloro-5-isopropyl-8-oxothieno[2′,3′:4,5]pyrrolo[1,2-d][1,2,4]triazin-7(8H)-yl)-N-(1-methylpyrrolidin-3-yl)acetamide] is 0.51 log units lower in pIC50: 6.59 for the first, 6.08 for the second.

Compared with CC(C)c1nn(CC(=O)NC23CC(C(=O)O)(C2)C3)c(=O)c2cc3sc(Cl)cc3n12 [Ex 123, 3-(2-(2-Chloro-5-isopropyl-8-oxothieno[2′,3′:4,5]pyrrolo[1,2-d][1,2,4]triazin-7(8H)-yl)acetamido)bicyclo[1.1.1]pentane-1-carboxylic acid], CC(C)c1nn(CC(=O)NC2CCCC2)c(=O)c2cc3sc(Cl)cc3n12 [Ex 101, 2-(2-chloro-5-Isopropyl-8-oxothieno[2′,3′:4,5]pyrrolo[1,2-d][1,2,4]triazin-7(8H)-yl)-N-cyclopentylacetamide] is 0.74 log units higher in pIC50: 5.68 for the first, 6.42 for the second.

Going from CC(C)c1nn(CC(=O)NCCC(C)(C)O)c(=O)c2cc3scnc3n12 [Ex 94, N-(3-Hydroxy-3-methylbutyl)-2-(5-isopropyl-8-oxothiazolo[5′,4′:4,5]pyrrolo[1,2-d][1,2,4]triazin-7(8H)-yl)acetamide] to CC(C)c1nn(CC(=O)NC[C@@H](C)O)c(=O)c2cc3scnc3n12 [Ex 95, (R)-N-(2-Hydroxypropyl)-2-(5-isopropyl-8-oxothiazolo[5′,4′:4,5]pyrrolo[1,2-d][1,2,4]triazin-7(8H)-yl)acetamide], the pIC50 falls from 7.19 to 6.61 (0.58 log units). The first is the more potent here.

Going from CC(C)c1nn(CC(=O)N[C@H]2C[C@](C)(O)C2)c(=O)c2cc3sc(F)cc3n12 [Ex 86, 2-(2-Fluoro-5-isopropyl-8-oxothieno[2′,3′:4,5]pyrrolo[1,2-d][1,2,4]triazin-7(8H)-yl)-N-((1r,3r)-3-hydroxy-3-methylcyclobutyl)acetamide] to CC(C)c1nn(CC(=O)N[C@H]2C[C@](O)(C(F)(F)F)C2)c(=O)c2cc3sc(Cl)cc3n12 [Ex 74, 2-(2-Chloro-5-isopropyl-8-oxothieno[2′,3′:4,5]pyrrolo[1,2-d][1,2,4]triazin-7(8H)-yl)-N-((1s,3s)-3-hydroxy-3-(trifluoromethyl)cyclobutyl)acetamide], the pIC50 rises from 7.39 to 8.36 (0.97 log units). The second is the more potent here.

Going from CC(C)(O)c1nn(CC(=O)N[C@@H]2CCCN(C3CC3)C2)c(=O)c2cc3sc(Cl)cc3n12 [Ex 126, (R)-2-(2-Chloro-5-(2-hydroxypropan-2-yl)-8-oxothieno[2′,3′:4,5]pyrrolo[1,2-d][1,2,4]triazin-7(8H)-yl)-N-(1-cyclopropylpiperidin-3-yl)acetamide] to CC(C)(O)c1nn(CC(=O)N[C@@H]2CCNC2)c(=O)c2cc3sc(Cl)cc3n12 [Ex 106, (R)-2-(2-Chloro-5-(2-hydroxypropan-2-yl)-8-oxothieno[2′,3′:4,5]pyrrolo[1,2-d][1,2,4]triazin-7(8H)-yl)-N-(pyrrolidin-3-yl)acetamide], the pIC50 falls from 9.22 to 5.66 (3.56 log units).

First: CC(C)(O)c1nn(CC(=O)N[C@H]2CC[C@H](C(=O)O)CC2)c(=O)c2cc3sc(Cl)cc3n12 [Ex 122, (1r,4r)-4-(2-(2-Chloro-5-(2-hydroxypropan-2-yl)-8-oxothieno[2′,3′:4,5]pyrrolo[1,2-d][1,2,4]triazin-7(8H)-yl)acetamido)cyclohexane-1-carboxylic acid]
Second: CC(C)c1nn(CC(=O)N[C@H]2CCNC2)c(=O)c2cc3sc(Cl)cc3n12 [Ex 102, (S)-2-(2-Chloro-5-isopropyl-8-oxothieno[2′,3′:4,5]pyrrolo[1,2-d][1,2,4]triazin-7(8H)-yl)-N-(pyrrolidin-3-yl)acetamide]
The pIC50 of the first is 0.52 log units higher: 6.57 for the first, 6.05 for the second. The first is the more potent here.

CC(C)c1nn(CC(=O)Nc2cccnc2Cl)c(=O)c2cc3sc(Cl)cc3n12 [Ex 13, 2-(2-Chloro-5-isopropyl-8-oxothieno[2′,3′:4,5]pyrrolo[1,2-d][1,2,4]triazin-7(8H)-yl)-N-(2-chloropyridin-3-yl)acetamide] and CC(C)c1nn(CC(=O)Nc2nccs2)c(=O)c2cc3sc(Cl)cc3n12 [Ex 11, 2-(2-Chloro-5-isopropyl-8-oxothieno[2′,3′:4,5]pyrrolo[1,2-d][1,2,4]triazin-7(8H)-yl)-N-(thiazol-2-yl)acetamide] are within 0.2 log units of each other in pIC50: 7.03 for the first, 7.20 for the second.

Compared with CC(C)c1nn(CC(=O)Nc2ccnn2C)c(=O)c2cc3sc(Cl)cc3n12 [Ex 57, 2-(2-Chloro-5-isopropyl-8-oxothieno[2′,3′:4,5]pyrrolo[1,2-d][1,2,4]triazin-7(8H)-yl)-N-(1-methyl-1H-pyrazol-5-yl)acetamide], CC(C)c1nn(CC(=O)Nc2cncs2)c(=O)c2cc3sc(Cl)cc3n12 [Ex 12, 2-(2-Chloro-5-isopropyl-8-oxothieno[2′,3′:4,5]pyrrolo[1,2-d][1,2,4]triazin-7(8H)-yl)-N-(thiazol-5-yl)acetamide] is 0.42 log units higher in pIC50: 7.21 for the first, 7.63 for the second.

First: CC(C)c1nn(CC(=O)NC2CCCC2)c(=O)c2cc3scnc3n12 [Ex 98, N-Cyclopentyl-2-(5-isopropyl-8-oxothiazolo[5′,4′:4,5]pyrrolo[1,2-d][1,2,4]triazin-7(8H)-yl)acetamide]
Second: CC(C)c1nn(CC(=O)Nc2ccc(F)nc2)c(=O)c2cc3sc(Cl)cc3n12 [Ex 14, 2-(2-Chloro-5-isopropyl-8-oxothieno[2′,3′:4,5]pyrrolo[1,2-d][1,2,4]triazin-7(8H)-yl)-N-(6-fluoropyridin-3-yl)acetamide]
The pIC50 of the first is 0.47 log units lower: 6.57 for the first, 7.04 for the second.
